In ChEMBL document CHEMBL4138100, “Novel anti-inflammatory agents targeting CXCR4: Design, synthesis, biological evaluation and preliminary pharmacokinetic study” (Eur J Med Chem, 2017):
Active and inactive are the calls of the source. The rule behind the calls is not given here.

Tests used:
[1] = biological target: C-X-C chemokine receptor type 4 (Homo sapiens) (UniProt P61073); test: Inhibition of biotinylated TN14003 binding to CXCR4 in human MDA-MB-231 cells assessed as reduction in fluorescence preincubated for 10 mins followed by biotinylated-TN14003 addition measured after 30 mins by streptavidin-rhodamine staining based immunofluorescence microscopic analysis; type: cell-based
[2] = biological target: C-X-C chemokine receptor type 4 (Homo sapiens) (UniProt P61073); test: Potency index, ratio of AMD3100 EC to compound EC for inhibition of biotinylated TN14003 binding to CXCR4 in human MDA-MB-231 cells; type: functional, cell-based
[3] = biological target: C-X-C chemokine receptor type 4 (Homo sapiens) (UniProt P61073); test: Inhibition of CXCR4-mediated chemotaxis in human MDA-MB-231 cells assessed as inhibition of CXCL12alpha-induced cell invasion at 100 nM after 22 hrs by hematoxylin/eosin dye-based matrigel assay relative to control; type: functional
[4] = system: Mus musculus; test: Antiinflammatory activity in mouse assessed as inhibition of xylene-induced ear edema at 10 mg/kg, ip treated post 30 mins xylene treatment measured at 2 hrs post dose relative to control; type: functional
[5] = system: Mus musculus; test: Antiinflammatory activity in mouse assessed as inhibition of xylene-induced increase in number of inflammatory cells in ear at 10 mg/kg, ip treated post 30 mins xylene treatment measured at 2 hrs post last dose by histological analysis; type: functional, organism-based
[6] = system: Mus musculus; test: Antiinflammatory activity in mouse assessed as inhibition of xylene-induced ear edema volume at 10 mg/kg, ip treated post 30 mins xylene treatment measured at 2 hrs post dose by histological analysis; type: functional, organism-based
[7] = biological target: C-X-C chemokine receptor type 4 (Homo sapiens) (UniProt P61073); test: Inhibition of CXCR4 in human MDA-MB-231 cells assessed as reduction in CXCR4/[…] signaling-mediated Akt Ser473 phosphorylation by Western blot analysis; type: functional, cell-based
[8] = system: MDA-MB-231; test: Cytotoxicity against human MDA-MB-231 cells assessed as inhibition of cell proliferation at 10 uM after 24 to 72 hrs by MTT assay; type: cell-based; conditions: mda-mb-231, 10 µM
[9] = system: MCF-10A; test: Antiproliferative activity in human MCF10A cells at 10 uM after 24 to 72 hrs by MTT assay; type: cell-based
[10] = system: Mus musculus; test: Antiinflammatory activity in mouse assessed as inhibition of xylene-induced ear thickness at 10 mg/kg, ip treated post 30 mins xylene treatment measured at 2 hrs post dose by histological analysis; type: functional, organism-based
[11] = Stability in nude mouse plasma assessed as parent compound remaining at 30 mg/kg, iv after 5 mins by HPLC analysis; type: ADME, organism-based; conditions: read-out: Stability
[12] = Stability in nude mouse plasma assessed as parent compound remaining at 30 mg/kg, iv after 20 mins by HPLC analysis; type: ADME, organism-based; conditions: read-out: Stability
[13] = Stability in nude mouse plasma assessed as parent compound remaining at 30 mg/kg, iv after 50 mins by HPLC analysis; type: ADME, organism-based; conditions: read-out: Stability
[14] = Half life in nude mouse plasma at 30 mg/kg, iv by HPLC analysis; type: ADME, organism-based
[15] = Stability in nude mouse plasma assessed as parent compound remaining at 30 mg/kg, iv after 1 hr by HPLC analysis; type: ADME, organism-based; conditions: in vivo
[16] = system: CXCR4; test: Selectivity index, ratio of antiproliferative activity in human MDA-MB-231 cells to EC for inhibition of biotinylated TN14003 binding to CXCR4 in human MDA-MB-231 cells; type: toxicity, cell-based; conditions: probe biotinylated TN14003, read-out: Selectivity Index
[17] = system: CXCR4; test: Selectivity index, ratio of antiproliferative activity in human MCF10A cells to EC for inhibition of biotinylated TN14003 binding to CXCR4 in human MDA-MB-231 cells; type: toxicity, cell-based; conditions: probe biotinylated TN14003, read-out: Selectivity Index

Sequence of C-X-C chemokine receptor type 4 (Homo sapiens) (P61073 whole entry): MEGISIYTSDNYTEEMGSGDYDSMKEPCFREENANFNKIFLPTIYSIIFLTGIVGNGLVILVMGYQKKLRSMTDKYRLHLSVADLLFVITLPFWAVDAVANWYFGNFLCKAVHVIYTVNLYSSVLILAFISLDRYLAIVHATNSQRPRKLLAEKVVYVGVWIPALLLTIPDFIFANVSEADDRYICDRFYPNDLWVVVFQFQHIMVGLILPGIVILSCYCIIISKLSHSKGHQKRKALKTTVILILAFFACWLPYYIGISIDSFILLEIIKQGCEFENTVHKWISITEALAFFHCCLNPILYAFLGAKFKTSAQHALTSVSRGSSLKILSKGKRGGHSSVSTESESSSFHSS

Structure (SMILES): O=C(NCc1ccc(CNS(=O)(=O)c2ccccc2)cc1)c1ccccc1
- EC [1]: 1 nM
- Ratio [2]: 1000
- inhibition [3]: > 60%
- inhibition in vivo at 10 mg/kg [4]: 62%

Structure (SMILES): Cc1cccc(C(=O)NCc2ccc(CNS(=O)(=O)c3ccccc3)cc2)c1
- EC [1]: 1000 nM

Structure (SMILES): Cc1ccc(S(=O)(=O)NCc2ccc(CNC(=O)c3cccc(Cl)c3)cc2)cc1
- EC [1]: 100 nM
- inhibition [3]: > 60%
- inhibition in vivo at 10 mg/kg [4]: 57%

Structure (SMILES): Cc1ccc(S(=O)(=O)NCc2ccc(CNC(=O)c3ccccc3)cc2)cc1
- EC [1]: > 1000 nM

Structure (SMILES): COc1cccc(C(=O)NCc2ccc(CNS(=O)(=O)c3ccccc3)cc2)c1
- EC [1]: > 1000 nM

Structure (SMILES): Cc1ccc(C(=O)NCc2ccc(CNS(=O)(=O)c3ccccc3)cc2)cc1
- EC [1]: 100 nM
- inhibition [3]: < 50%

Structure (SMILES): O=C(NCc1ccc(CNS(=O)(=O)c2ccccc2)cc1)c1ccccc1Cl
- EC [1]: 10 nM
- inhibition [3]: > 60%
- inhibition [4]: inactive

Structure (SMILES): Cc1ccc(S(=O)(=O)NCc2ccc(CNC(=O)c3ccc([N+](=O)[O-])cc3)cc2)cc1
- EC [1]: 10 nM
- inhibition [3]: 55%

Structure (SMILES): Cc1ccc(S(=O)(=O)NCc2ccc(CNC(=O)c3ccccc3F)cc2)cc1
- EC [1]: 1000 nM

Structure (SMILES): O=C(NCc1ccc(CNS(=O)(=O)c2ccccc2)cc1)c1c(Cl)cc(Cl)cc1Cl
- EC [1]: 10 nM
- inhibition [3]: > 60%
- inhibition [4]: inactive

Structure (SMILES): O=C(NCc1ccc(CNS(=O)(=O)c2ccccc2)cc1)c1cccnc1
- EC [1]: 10 nM
- inhibition [3]: > 60%
- inhibition in vivo at 10 mg/kg [4]: 53%

Structure (SMILES): O=C(NCc1ccc(CNS(=O)(=O)c2ccccc2)cc1)c1ccncc1
- EC [1]: 10 nM
- inhibition [3]: > 60%
- inhibition in vivo at 10 mg/kg [4]: 40%

Structure (SMILES): Cc1ccc(S(=O)(=O)NCc2ccc(CNC(=O)c3ccccc3Cl)cc2)cc1
- EC [1]: 10 nM
- inhibition [3]: > 90%
- inhibition in vivo at 10 mg/kg [4]: 26%

Structure (SMILES): COc1ccc(C(=O)NCc2ccc(CNS(=O)(=O)c3ccccc3)cc2)cc1
- EC [1]: 1000 nM

Structure (SMILES): Cc1ccc(S(=O)(=O)NCc2ccc(CNC(=O)c3cccc(C)c3)cc2)cc1
- EC [1]: 1000 nM

Structure (SMILES): Cc1ccc(S(=O)(=O)NCc2ccc(CNC(=O)c3cccnc3)cc2)cc1
- EC [1]: > 1000 nM

Structure (SMILES): Cc1ccc(S(=O)(=O)NCc2ccc(CNC(=O)c3ccc(Cl)cc3)cc2)cc1
- EC [1]: 10 nM
- inhibition [3]: > 60%
- inhibition in vivo at 10 mg/kg [4]: 50%

Structure (SMILES): COc1ccc(C(=O)NCc2ccc(CNS(=O)(=O)c3ccc(C)cc3)cc2)cc1
- EC [1]: 100 nM
- inhibition [3]: 55%

Structure (SMILES): O=C(NCc1ccc(CNS(=O)(=O)c2ccccc2)cc1)c1cccc(Cl)c1
- EC [1]: 1000 nM

Structure (SMILES): O=C(NCc1ccc(CNS(=O)(=O)c2ccccc2)cc1)c1ccc(Cl)cc1
- EC [1]: 100 nM
- inhibition [3]: < 50%

Structure (SMILES): O=C(NCc1ccc(CNS(=O)(=O)c2ccccc2)cc1)c1ccc(F)cc1
- EC [1]: 100 nM
- inhibition [3]: > 60%
- inhibition in vivo at 10 mg/kg [4]: 40%

Structure (SMILES): Cc1ccc(S(=O)(=O)NCc2ccc(CNC(=O)c3ccccc3C)cc2)cc1
- EC [1]: 100 nM
- inhibition [3]: < 50%

Structure (SMILES): Cc1ccc(C(=O)NCc2ccc(CNS(=O)(=O)c3ccc(C)cc3)cc2)cc1
- EC [1]: 1000 nM

Structure (SMILES): O=C(NCc1ccc(CNS(=O)(=O)c2ccccc2)cc1)c1ccccc1F
- EC [1]: 1000 nM

Structure (SMILES): Cc1ccc(S(=O)(=O)NCc2ccc(CNC(=O)c3c(Cl)cc(Cl)cc3Cl)cc2)cc1
- EC [1]: 10 nM
- inhibition [3]: 55%

Structure (SMILES): Cc1ccc(S(=O)(=O)NCc2ccc(CNC(=O)c3ccncc3)cc2)cc1
- EC [1]: 10 nM
- inhibition [3]: 55%

Structure (SMILES): COc1ccccc1C(=O)NCc1ccc(CNS(=O)(=O)c2ccccc2)cc1
- EC [1]: 1 nM
- Ratio [2]: 1000
- inhibition [3]: > 90%
- inhibition [4]: inactive

Structure (SMILES): Cc1ccccc1C(=O)NCc1ccc(CNS(=O)(=O)c2ccccc2)cc1
- EC [1]: 1 nM
- Ratio [2]: 1000
- inhibition [3]: > 90%
- inhibition [4]: inactive

Structure (SMILES): Cc1ccc(S(=O)(=O)NCc2ccc(CNC(=O)c3ccc(F)cc3)cc2)cc1
- inhibition [5]: Active
- inhibition [6]: Active
- EC [1]: 1 nM
- inhibition [3]: > 60%
- inhibition [7]: Dose-dependent effect
- Activity [8]: Non-Toxic
- Activity [9]: Non-Toxic
- inhibition in vivo at 10 mg/kg [4]: 75%
- inhibition [10]: Active
- remaining at 5 min [11]: 100%
- remaining at 20 min [12]: 65%
- remaining at 50 min [13]: 45%
- half-life [14]: 40 min
- Stability [15]: Stable
- selectivity ratio [16]: 1000
- selectivity ratio [17]: 1000

Structure (SMILES): COc1cccc(C(=O)NCc2ccc(CNS(=O)(=O)c3ccc(C)cc3)cc2)c1
- EC [1]: 10 nM
- inhibition [3]: > 90%
- inhibition in vivo at 10 mg/kg [4]: 28%

Structure (SMILES): Cc1ccc(S(=O)(=O)NCc2ccc(CNC(=O)c3cccc(F)c3)cc2)cc1
- EC [1]: 1 nM
- Ratio [2]: 1000
- inhibition [3]: 55%

Structure (SMILES): O=C(NCc1ccc(CNS(=O)(=O)c2ccccc2)cc1)c1ccc([N+](=O)[O-])cc1
- EC [1]: 100 nM
- inhibition [3]: 55%

Structure (SMILES): COc1ccccc1C(=O)NCc1ccc(CNS(=O)(=O)c2ccc(C)cc2)cc1
- EC [1]: 100 nM
- inhibition [3]: > 90%
- inhibition [4]: inactive

Structure (SMILES): O=C(NCc1ccc(CNS(=O)(=O)c2ccccc2)cc1)c1cccc(F)c1
- EC [1]: 100 nM
- inhibition [3]: > 60%
